According to ChEMBL document CHEMBL1158615, “Synthesis and biological evaluation of bicyclo[3.3.0] octane derivatives as dipeptidyl peptidase 4 inhibitors for the treatment of type 2 diabetes” (Bioorg Med Chem Lett, 2010):
pIC50: −log10 of the molar value. Calls of active or inactive are those of the source. No cut-off for these calls is given here.

Legend:
Mus musculus = test: Antidiabetic activity in ICR mouse assessed as deduction of glucose excursion at 0.3 to 10 mg/kg, po administered 30 mins before oral glucose challenge measured up to 120 mins by oral glucose tolerance test; assay type: functional, organism-based
Dipeptidyl peptidase 4 = Dipeptidyl peptidase 4 (Homo sapiens, UniProt P27487)
Sequence of Dipeptidyl peptidase 4 (P27487 whole entry): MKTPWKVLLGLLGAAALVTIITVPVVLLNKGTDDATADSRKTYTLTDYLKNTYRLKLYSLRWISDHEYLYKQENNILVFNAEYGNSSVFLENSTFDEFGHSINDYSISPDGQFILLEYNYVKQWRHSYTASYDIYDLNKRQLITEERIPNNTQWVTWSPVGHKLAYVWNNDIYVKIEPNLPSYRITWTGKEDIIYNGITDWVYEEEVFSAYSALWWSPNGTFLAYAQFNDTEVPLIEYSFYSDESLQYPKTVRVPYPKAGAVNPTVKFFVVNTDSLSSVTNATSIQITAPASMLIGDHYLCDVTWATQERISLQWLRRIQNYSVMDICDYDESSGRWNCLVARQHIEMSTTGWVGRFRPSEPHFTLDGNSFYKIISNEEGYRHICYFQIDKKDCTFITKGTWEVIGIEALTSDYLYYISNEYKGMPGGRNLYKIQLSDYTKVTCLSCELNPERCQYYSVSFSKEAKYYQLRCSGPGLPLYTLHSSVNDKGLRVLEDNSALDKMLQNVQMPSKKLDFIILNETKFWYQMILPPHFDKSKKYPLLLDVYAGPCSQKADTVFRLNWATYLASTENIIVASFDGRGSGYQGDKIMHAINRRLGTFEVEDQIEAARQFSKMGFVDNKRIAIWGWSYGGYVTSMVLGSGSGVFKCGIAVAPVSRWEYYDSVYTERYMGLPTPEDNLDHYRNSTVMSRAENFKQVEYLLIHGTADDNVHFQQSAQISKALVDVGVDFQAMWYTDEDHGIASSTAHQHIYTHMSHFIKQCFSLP
Description: Inhibition of DPP4 by chemical luminescent assay

SMILES	pIC50 (Dipeptidyl peptidase 4)	Activity (Mus musculus)
CO[C@H]1C[C@H]2C[C@@H](NCC(=O)N3CCC[C@H]3C#N)C[C@H]2C1		Active
N#C[C@@H]1CCCN1C(=O)CN[C@@H]1C[C@@H]2C[C@H](OC(=O)Nc3ccccc3)C[C@@H]2C1	6.92	
N#C[C@@H]1CCCN1C(=O)CN[C@H]1C[C@H]2C[C@@H](O)C[C@H]2C1		Active

Second part, led by results:

pIC50 (Dipeptidyl peptidase 4)	SMILES	Activity (Mus musculus)
6.69	CC(C)NC(=O)O[C@H]1C[C@H]2C[C@@H](NCC(=O)N3CCC[C@H]3C#N)C[C@H]2C1	
6.49	CC(C)(C)NC(=O)O[C@H]1C[C@H]2C[C@@H](NCC(=O)N3CCC[C@H]3C#N)C[C@H]2C1	
